Experimental data published in ChEMBL document CHEMBL1140924, “Biomedical application of orexin/hypocretin receptor ligands in neuroscience” (J Med Chem, 2009).

Biological target: T1, Orexin receptor type 2 (Homo sapiens, UniProt O43614)
T1 sequence (O43614 whole entry): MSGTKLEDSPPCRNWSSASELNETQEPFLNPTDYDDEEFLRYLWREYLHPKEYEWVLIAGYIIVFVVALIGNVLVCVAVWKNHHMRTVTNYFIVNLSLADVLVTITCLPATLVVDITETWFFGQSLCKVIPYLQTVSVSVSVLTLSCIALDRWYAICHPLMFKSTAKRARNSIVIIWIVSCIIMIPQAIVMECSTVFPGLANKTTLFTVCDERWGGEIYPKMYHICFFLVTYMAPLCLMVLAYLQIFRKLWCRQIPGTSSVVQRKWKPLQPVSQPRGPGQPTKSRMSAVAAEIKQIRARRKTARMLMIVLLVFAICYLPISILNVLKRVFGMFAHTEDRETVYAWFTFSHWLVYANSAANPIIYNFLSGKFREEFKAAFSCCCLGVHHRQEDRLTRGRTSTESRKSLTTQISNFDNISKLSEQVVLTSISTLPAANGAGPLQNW
Assay: Binding affinity to OX2 receptor

| SMILES | Ki [nM] |
| --- | --- |
| Cc1ccc(Cl)c(NC(=O)N[C@H]2COC(C)(C)O[C@H]2c2ccccc2)c1 | > 5010 |
| CC1(C)OC[C@H](NC(=O)Nc2ccccc2)[C@H](c2ccccc2)O1 | > 10000 |
| CC1(C)OC[C@H](NC(=O)Nc2ccccc2Cl)[C@H](c2ccccc2)O1 | > 10000 |
| CC1(C)OC[C@H](NC(=O)Nc2ccccc2F)[C@H](c2ccccc2)O1 | > 10000 |
| CC1(C)OC[C@H](NC(=O)Nc2ccc(Br)cc2Cl)[C@H](c2ccccc2)O1 | > 5010 |
| CC1(C)OC[C@H](NC(=O)Nc2cccc(Br)c2)[C@H](c2ccccc2)O1 | > 10000 |
| CC1(C)OC[C@H](NC(=O)Nc2ccc(Cl)cc2Cl)[C@H](c2ccccc2)O1 | 2510 |
| CC1(C)OC[C@H](NC(=O)Nc2ccccc2I)[C@H](c2ccccc2)O1 | > 5010 |
| CC(C)c1ccccc1NC(=O)N[C@H]1COC(C)(C)O[C@H]1c1ccccc1 | > 10000 |
| Cc1cc(Br)ccc1NC(=O)N[C@H]1COC(C)(C)O[C@H]1c1ccccc1 | > 10000 |
| CC1(C)OC[C@H](NC(=O)Nc2cc(Cl)ccc2Cl)[C@H](c2ccccc2)O1 | > 5010 |
| CC1(C)OC[C@H](NC(=O)Nc2ccc(Br)cc2)[C@H](c2ccccc2)O1 | > 10000 |
| COc1ccccc1NC(=O)N[C@H]1COC(C)(C)O[C@H]1c1ccccc1 | > 10000 |
| CC1(C)OC[C@H](NC(=O)Nc2c(Cl)cccc2Cl)[C@H](c2ccccc2)O1 | > 10000 |

Test system: not listed separately
Assay: Selectivity of Ki for OX1 receptor to Ki for OX2 receptor

| SMILES | Ratio |
| --- | --- |
| Cc1ccc(Cl)c(NC(=O)N[C@H]2COC(C)(C)O[C@H]2c2ccccc2)c1 | 80 |
| CC1(C)OC[C@H](NC(=O)Nc2ccccc2)[C@H](c2ccccc2)O1 | 20 |
| CC1(C)OC[C@H](NC(=O)Nc2ccccc2Cl)[C@H](c2ccccc2)O1 | 100 |
| CC1(C)OC[C@H](NC(=O)Nc2ccccc2F)[C@H](c2ccccc2)O1 | 20 |
| CC1(C)OC[C@H](NC(=O)Nc2ccc(Br)cc2Cl)[C@H](c2ccccc2)O1 | 900 |
| CC1(C)OC[C@H](NC(=O)Nc2cccc(Br)c2)[C@H](c2ccccc2)O1 | 9 |
| CC1(C)OC[C@H](NC(=O)Nc2ccc(Cl)cc2Cl)[C@H](c2ccccc2)O1 | 100 |
| CC1(C)OC[C@H](NC(=O)Nc2ccccc2I)[C@H](c2ccccc2)O1 | 70 |
| CC(C)c1ccccc1NC(=O)N[C@H]1COC(C)(C)O[C@H]1c1ccccc1 | 4 |
| Cc1cc(Br)ccc1NC(=O)N[C@H]1COC(C)(C)O[C@H]1c1ccccc1 | 200 |
| CC1(C)OC[C@H](NC(=O)Nc2cc(Cl)ccc2Cl)[C@H](c2ccccc2)O1 | 80 |
| CC1(C)OC[C@H](NC(=O)Nc2ccc(Br)cc2)[C@H](c2ccccc2)O1 | 40 |
| COc1ccccc1NC(=O)N[C@H]1COC(C)(C)O[C@H]1c1ccccc1 | 4 |
| CC1(C)OC[C@H](NC(=O)Nc2c(Cl)cccc2Cl)[C@H](c2ccccc2)O1 | 2 |

Biological target: T2, Orexin/Hypocretin receptor type 1 (Homo sapiens) (UniProt O43613)
T2 sequence (whole entry): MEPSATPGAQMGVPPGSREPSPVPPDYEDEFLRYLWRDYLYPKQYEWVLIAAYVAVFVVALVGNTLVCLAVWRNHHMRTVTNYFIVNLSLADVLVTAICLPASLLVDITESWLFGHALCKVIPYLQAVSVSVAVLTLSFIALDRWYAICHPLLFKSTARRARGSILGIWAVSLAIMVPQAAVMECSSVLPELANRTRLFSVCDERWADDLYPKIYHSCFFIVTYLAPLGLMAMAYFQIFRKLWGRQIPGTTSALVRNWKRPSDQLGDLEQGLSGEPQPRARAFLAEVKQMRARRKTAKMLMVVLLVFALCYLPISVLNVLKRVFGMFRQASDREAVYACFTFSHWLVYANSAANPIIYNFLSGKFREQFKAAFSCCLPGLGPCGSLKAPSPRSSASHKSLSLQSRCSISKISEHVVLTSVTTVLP
Assay: Antagonist activity at human OX1 receptor expressed in CHO cells assessed as inhibition of receptor-mediated calcium response by FLIPR
Format: functional, cell-based

| SMILES | pKb |
| --- | --- |
| CN(C)c1ccc(NC(=O)Nc2ccnc3ccccc23)cc1Cl | 7.4 |
| Cc1nc2ccc(NC(=O)Nc3ccnc4ccncc34)cc2o1 | 5.9 |
| Nc1ccc(NC(=O)Nc2ccnc3ccccc23)cc1 | 6.1 |
| Cn1ccc2cc(NC(=O)Nc3cccc4ccccc34)ccc21 | < 6.3 |
| Cn1ccc2cc(NC(=O)Nc3ccncc3)ccc21 | < 5 |
| Cc1nc2ccc(NC(=O)Nc3ccnc4ccccc34)cc2o1 | 7.7 |
| O=C(Nc1ccc2[nH]ccc2c1)Nc1ccnc2ccccc12 | 6.2 |
| Cn1ccc2cc(NC(=O)Nc3ccnc4cccnc34)ccc21 | 7.3 |
| CN(C)c1ccc(NC(=O)Nc2ccnc3ccccc23)cc1 | 7.8 |
| CCN(CC)c1ccc(NC(=O)Nc2ccnc3ccccc23)cc1 | 7.4 |
| Cc1nc2ccc(NC(=O)Nc3ccnc4ncccc34)cc2o1 | 6.5 |
| CN(C)c1cccc(NC(=O)Nc2ccnc3ccccc23)c1 | 6.1 |
| O=C(Nc1ccccc1)Nc1ccnc2ccccc12 | < 6.1 |
| O=C(Nc1ccc2ocnc2c1)Nc1ccnc2ccccc12 | < 6.2 |
| CSc1ccc(NC(=O)Nc2ccnc3ccccc23)cc1 | 7.9 |
| CN1CCc2cc(NC(=O)Nc3ccnc4ccccc34)ccc21 | 7.6 |
| O=C(Nc1ccc2ncoc2c1)Nc1ccnc2ccccc12 | 7 |
| Cc1nc2ccc(NC(=O)Nc3ccnc4cccnc34)cc2o1 | 7.4 |
| O=C(Nc1ccc2c(ccn2Cc2ccccc2)c1)Nc1ccnc2ccccc12 | < 6.1 |

Biological target: T3, Orexin/Hypocretin receptor type 1 (Homo sapiens, UniProt O43613)
T3 sequence (O43613 whole entry): T2 sequence (whole entry)
Assay: Binding affinity to OX1 receptor

| SMILES | Ki [nM] |
| --- | --- |
| Cc1ccc(Cl)c(NC(=O)N[C@H]2COC(C)(C)O[C@H]2c2ccccc2)c1 | 63.1 |
| CC1(C)OC[C@H](NC(=O)Nc2ccccc2)[C@H](c2ccccc2)O1 | 501 |
| CC1(C)OC[C@H](NC(=O)Nc2ccccc2Cl)[C@H](c2ccccc2)O1 | 79.4 |
| CC1(C)OC[C@H](NC(=O)Nc2ccccc2F)[C@H](c2ccccc2)O1 | 398 |
| CC1(C)OC[C@H](NC(=O)Nc2ccc(Br)cc2Cl)[C@H](c2ccccc2)O1 | 6.31 |
| CC1(C)OC[C@H](NC(=O)Nc2cccc(Br)c2)[C@H](c2ccccc2)O1 | 1000 |
| CC1(C)OC[C@H](NC(=O)Nc2ccc(Cl)cc2Cl)[C@H](c2ccccc2)O1 | 20 |
| CC1(C)OC[C@H](NC(=O)Nc2ccccc2I)[C@H](c2ccccc2)O1 | 79.4 |
| CC(C)c1ccccc1NC(=O)N[C@H]1COC(C)(C)O[C@H]1c1ccccc1 | 2510 |
| Cc1cc(Br)ccc1NC(=O)N[C@H]1COC(C)(C)O[C@H]1c1ccccc1 | 39.8 |
| CC1(C)OC[C@H](NC(=O)Nc2cc(Cl)ccc2Cl)[C@H](c2ccccc2)O1 | 63.1 |
| CC1(C)OC[C@H](NC(=O)Nc2ccc(Br)cc2)[C@H](c2ccccc2)O1 | 251 |
| COc1ccccc1NC(=O)N[C@H]1COC(C)(C)O[C@H]1c1ccccc1 | 2510 |
| CC1(C)OC[C@H](NC(=O)Nc2c(Cl)cccc2Cl)[C@H](c2ccccc2)O1 | > 5010 |

Biological target: T1, Orexin receptor type 2
Assay: Inhibition of OX2 receptor

| SMILES | IC50 [nM] |
| --- | --- |
| COc1cc2c(cc1OC)C(CCc1ccc(F)c(F)c1)N(C(C(=O)NCC1CC1)c1ccccc1)CC2 (stereo not given) | 14 |
| COc1cccc(CC2c3cc(OC)c(OC)cc3CCN2CC(=O)NC2CCc3ccccc32)c1 (stereo not given) | 5660 |

Biological target: T3, Orexin/Hypocretin receptor type 1
Assay: Inhibition of OX1 receptor

| SMILES | IC50 [nM] |
| --- | --- |
| COc1cc2c(cc1OC)C(CCc1ccc(F)c(F)c1)N(C(C(=O)NCC1CC1)c1ccccc1)CC2 (stereo not given) | 552 |
| COc1cccc(CC2c3cc(OC)c(OC)cc3CCN2CC(=O)NC2CCc3ccccc32)c1 (stereo not given) | 1110 |
